According to patent US10513519B2, “Solid forms of (1S,4S)-4-(2-(((3S,4R)-3-fluorotetrahydro-2H-pyran-4-yl)amino)-8-((2,4,6-trichlorophenyl)amino)-9H-purin-9-yl)-1-methylcyclohexane-1-carboxamide and methods of their use” (Signal Pharmaceuticals, LLC, priority 2016, dated 2019):

System: cancer cell lines
Experiment: Multiplexed cytotoxicity assay: cell proliferation (relative cell count IC50, GI50)
Format: cell-based
Conditions: Homo sapiens
Protocol: (§1) Cells are grown in RPMI1640, 10% FBS, 2 mM L-alanyl-L-Glutamine, 1 mM Na pyruvate or a special medium in a humidified atmosphere of 5% CO2 at 37° C. Cells are seeded into 384-well plates and incubated in a humidified atmosphere of 5% CO2 at 37° C. Compounds are added 24 h post cell seeding. At the same time, a time zero untreated cell plate is generated. After a 72 hour incubation period, cells are fixed and stained with fluorescently labeled antibodies and nuclear dye to allow visualization of nuclei, apoptotic cells and mitotic cells. Apoptotic cells are detected using an anti-active caspase-3 antibody. Mitotic cells are detected using an anti phospho-histone-3 antibody. Compounds are serially diluted 3.16-fold and assayed over 10 concentrations in a final assay concentration of 0.1% DMSO from the highest test concentration of 10 μM. Automated fluorescence microscopy was carried out using a Molecular Devices ImageXpress Micro XL high-content imager, and images are collected with a 4× objective.
Sixteen-bit TIFF images are acquired and analyzed with MetaXpress 5.1.0.41 software. Cell proliferation is measured by the signal intensity of the incorporated nuclear dye. The cell proliferation assay output is referred to as the relative cell count. To determine the cell proliferation end point, the cell proliferation data output is transformed to percentage of control (POC) using the following formula: POC=relative cell count(compound wells)/relative cell count(vehicle wells)×100
GI50 is the concentration needed to reduce the observed growth by half. This is the concentration that inhibits the growth to the level midway between growth in untreated cells and the number of cells seeded in the well (Time zero value). The IC50 values are calculated using nonlinear regression to fit data to a sigmoidal 4 point, 4 parameter One-Site dose response model, where: y(fit)=A+[(B−A)/(1+((C/x)^D))].
as §1, with “In another experiment, cells were grown” for “Cells are grown”, “Cells were” for “Cells are”, “Compounds were” for “Compounds are”, “plate was” for “plate is”, “cells were” for “cells are”, “images were” for “images are”
Sixteen-bit TIFF images were acquired and analyzed with MetaXpress 5.1.0.41 software. Cell proliferation was measured by the signal intensity of the incorporated nuclear dye. The cell proliferation assay output was referred to as the relative cell count. To determine the cell proliferation end point, the cell proliferation data output was transformed to percentage of control (POC) using the following formula: POC=relative cell count(compound wells)/relative cell count(vehicle wells)×100
GI50 refers to the concentration needed to reduce the observed growth by half. This corresponds to the concentration that inhibits the growth to the level midway between growth in untreated cells and the number of cells seeded in the well (Time zero value). The IC50 values were calculated using nonlinear regression to fit data to a sigmoidal 4 point, 4 parameter One-Site dose response model, where: y(fit)=A+[(B−A)/(1+((C/x)^D))].

[1] = SK-N-AS, 72 h, SKNAS, CNS, Neuroblastoma
[2] = SK-N-DZ, 72 h, SKNDZ, CNS, Neuroblastoma
[3] = SK-N-FI, 72 h, SKNFI, CNS, Neuroblastoma
[4] = SK-OV-3, 72 h, SKOV3, Female GU, Ovary, 72 h
[5] = SK-UT-1, 72 h, SKUT1, Soft Tissue, Sarcoma, 72 h
[6] = SNU1, 72 h, SNU1, Stomach, 72 h
[7] = SNU-5, 72 h, SNU5, Stomach, 72 h
[8] = SNU-16, 72 h, SNU16, Stomach, 72 h
[9] = ST486, ST486 (Hematopoietic and lymphoid, Lymphoma)
[10] = SU-DHL10, SUDHL10 (Hematopoietic and lymphoid, Lymphoma)
[11] = SU-DHL-4, SUDHL4 (Hematopoietic and lymphoid, Lymphoma)
[12] = SU-DHL-5, SUDHL5 (Hematopoietic and lymphoid, Lymphoma)
[13] = SU-DHL-8, SUDHL8 (Hematopoietic and lymphoid, Lymphoma)
[14] = SU.86.86, 72 h, SU8686, Pancreas, 72 h
[15] = SUP-T1, SUPT1 (Hematopoietic and lymphoid, Lymphoma)
[16] = SW13, SW13 (Endocrine, Adrenal gland)
[17] = SW684, 72 h, SW684, Soft Tissue, Sarcoma, 72 h
[18] = SW872, 72 h, SW872, Soft Tissue, Sarcoma, 72 h
[19] = SW900, 72 h, SW900, Lung, SCLC, 72 h
[20] = SW 954, 72 h, SW954, Female GU, Vulva, 72 h
[21] = SW 962, 72 h, SW962, Female GU, Vulva, 72 h
[22] = SW982, 72 h, SW982, Soft Tissue, Sarcoma, 72 h
[23] = SW1353, 72 h, SW1353, Soft Tissue, Osteosarcoma, 72 h

`C[C@]1(C(N)=O)CC[C@@H](n2c(Nc3c(Cl)cc(Cl)cc3Cl)nc3cnc(N[C@@H]4CCOC[C@H]4F)nc32)CC1` [Compound 1, cis-4-[2-{[(3S,4R)-3-fluorooxan-4-yl]amino}-8-(2,4,6-trichloroanilino)-9H-purin-9-yl]-1-methylcyclohexane-1-carboxamide] showed a GI50 [1] of 48.9 nM, an IC50 [1] of 132 nM and a GI50 [2] of 7400 nM. For the same molecule, the IC50 [2] was > 10000 nM, the GI50 [3] was 15.1 nM and the IC50 [3] was 135 nM. The GI50 (SK-NEP-1, SKNEP1 (Kidney)) was > 10000 nM, the IC50 (SK-NEP-1, SKNEP1 (Kidney)) was > 10000 nM and the GI50 [4] was 547 nM. The IC50 [4] was > 10000 nM, the GI50 [5] was > 10000 nM and the IC50 [5] was > 10000 nM. The GI50 (SNB-19, SNB19 (CNS, Glioma)) was 163 nM, the IC50 (SNB-19, SNB19 (CNS, Glioma)) was 244 nM and the GI50 [6] was 35.5 nM. For the same molecule, the IC50 [6] was 63.1 nM, the GI50 [7] was 36.8 nM and the IC50 [7] was 94.3 nM. For the same molecule, the GI50 [8] was > 10000 nM, the IC50 [8] was > 10000 nM and the GI50 (SNU-423, SNU423 (Liver)) was 192 nM. It also gave an IC50 (SNU-423, SNU423 (Liver)) of 276 nM, a GI50 (SNU-C2B, SNUC2B (Colon)) of 54.4 nM and an IC50 (SNU-C2B, SNUC2B (Colon)) of 722 nM. The GI50 [9] was 5020 nM, the IC50 [9] was 6140 nM and the GI50 [10] was 1230 nM. It also gave an IC50 [10] of 1400 nM, a GI50 [11] of 168 nM and an IC50 [11] of 332 nM. For the same molecule, the GI50 [12] was 1.1 nM, the IC50 [12] was 1.3 nM and the GI50 [13] was 19.3 nM. For the same molecule, the IC50 [13] was 40.6 nM, the GI50 [14] was 63.5 nM and the IC50 [14] was 132 nM. For the same molecule, the GI50 [15] was 19.6 nM, the IC50 [15] was 46.6 nM and the GI50 [16] was 71.1 nM. For the same molecule, the IC50 [16] was 135 nM, the GI50 (SW48, SW48 (Colon)) was 1.8 nM and the IC50 (SW48, SW48 (Colon)) was 3.1 nM. The GI50 (SW480, SW480 (Colon)) was 18.4 nM, the IC50 (SW480, SW480 (Colon)) was 31.1 nM and the GI50 [17] was 86.9 nM. For the same molecule, the IC50 [17] was 370 nM, the GI50 (SW837, SW837 (Colon)) was 172 nM and the IC50 (SW837, SW837 (Colon)) was 348 nM. The GI50 [18] was 105 nM, the IC50 [18] was 136 nM and the GI50 [19] was 21.6 nM. For the same molecule, the IC50 [19] was 39.9 nM, the GI50 (SW948, SW948 (Colon)) was 195 nM and the IC50 (SW948, SW948 (Colon)) was 327 nM. It also gave a GI50 [20] of 114 nM, an IC50 [20] of 142 nM and a GI50 [21] of 82.8 nM. The IC50 [21] was 232 nM, the GI50 [22] was 15.6 nM and the IC50 [22] was 61.4 nM. It also gave a GI50 (SW1088, SW1088 (CNS, Glioma)) of 3350 nM, an IC50 (SW1088, SW1088 (CNS, Glioma)) of 5980 nM and a GI50 [23] of 184 nM. The IC50 [23] was 292 nM, the GI50 (SW1417, SW1417 (Colon)) was 8.8 nM and the IC50 (SW1417, SW1417 (Colon)) was 35.1 nM. It also gave a GI50 (SW1463, SW1463 (Colon)) of 135 nM, an IC50 (SW1463, SW1463 (Colon)) of 181 nM and a GI50 (SW1783, SW1783 (CNS, Glioma)) of 5920 nM. It also gave an IC50 (SW1783, SW1783 (CNS, Glioma)) of 9850 nM, a GI50 (SW-403, SW403 (Colon)) of 47.6 nM and an IC50 (SW-403, SW403 (Colon)) of 173 nM. The GI50 (SW-620, SW620 (Colon)) was 49.2 nM, the IC50 (SW-620, SW620 (Colon)) was 79.8 nM and the GI50 (SiHa, SIHA (Female GU, Cervix)) was > 10000 nM.
